Target: T1, recombinant human GST-SYK (Homo sapiens, UniProt P43405)
T1 construct: purchased Carna Biosciences 08-176
Experiment: Homogeneous Time-Resolved Fluorescence (HTRF) assay for the recombinant human Syk enzyme
Assay type: biochemical
Conditions: recombinant human GST-SYK 5 pM, ATP 25 μM, read-out: rhSYK IC50
Description: Homogeneous Time-Resolved Fluorescence (HTRF) Assay for the Recombinant Human Syk Enzyme
A recombinant GST-hSYK fusion protein was used to measure potency of compounds to inhibit human Syk activity. The recombinant human GST-SYK (Carna Biosciences #08-176) (5 pM final concentration) was incubated with various concentrations of the inhibitor diluted in DMSO (0.1% final concentration) for 10 minutes at room temperature in 15 mM Tris-HCl (pH 7.5), 0.01% tween 20, 2 mM DTT in 384 well plate format. To initiate the reaction the biotinylated substrate peptide (250 nM final concentration) that contains the phosphorylation site for Syk was added with magnesium (5 mM final concentration) and ATP (25 μM final concentration). Final volume of the reaction was 10 μL. Phosphorylation of the peptide was allowed to proceed for 45′ at room temperature. To quench the reaction and detect the phosphorylated product, 2 nM of a Europium-anti-phosphotyrosine antibody (Perkin Elmer #AD0161) and 70 nM SA-APC (Perkin-Elmer #CR130-100) were added together in 15 mM Tris pH 7.5, 40 mM EDTA, 0.01% tween 20. Final volume of the quenching solution was 10 μL.
The resulting HTRF signal was measured after 30 minutes on an EnVision (Perkin-Elmer) reader using a time-resolved fluorescence protocol. Table A below lists activities as IC50 values (nM) for representative compounds of the invention.

Q: Which IC50 does the source give for `CC1(C)CC(O)(c2ncc(-c3nccc(Nc4cc(C(F)(F)F)ccn4)n3)s2)CCC1C(=O)O` (single isomer, unassigned) [Example 1.13, (1S,4R or 1R,4S)-4-hydroxy-2,2-dimethyl-4-[5-(4-{[4-(trifluoromethyl)pyridin-2-yl]amino}pyrimidin-2-yl)-1,3-thiazol-2-yl]cyclohexane-carboxylic acid] here?
A: 564 pM

Q: With `CC1(C)CC(O)(c2ncc(-c3cccc(Nc4cc(C(F)(F)F)ncn4)n3)s2)CCC1C(=O)O` (single isomer, unassigned) [Example 3.6, (1S,4R or 1R,4S)-4-hydroxy-2,2-dimethyl-4-[5-(6-{[6-(trifluoromethyl)pyrimidin-4-yl]amino}pyridin-2-yl)-1,3-thiazol-2-yl]cyclohexanecarboxylic acid] as the compound, how does the IC50 read?
A: 517 pM

Q: Which IC50 does the source give for `Cc1cc(Nc2nccc(C)n2)cc(-c2cnc(C(C)(O)[C@H]3CC[C@H](C(=O)O)CC3)s2)n1` (single isomer, unassigned) [Example 4.11, (trans)-4-((R or S)-1-hydroxy-1-(5-{6-methyl-4-[(4-methylpyrimidin-2-yl)amino]pyridin-2-yl}-1,3-thiazol-2-yl)ethyl]cyclohexane carboxylic acid] here?
A: 1310 pM

Q: With `Cc1cc(Nc2nccc(C(F)(F)F)n2)cc(-c2cnc(C(C)(O)[C@H]3CC[C@H](C(=O)O)CC3)s2)n1` (single isomer, unassigned) [Example 4.8, (trans)-4-((R or S)-1-hydroxy-1-[5-(6-methyl-4-{[4-(trifluoromethyl)pyrimidin-2-yl]amino}pyridin-2-yl)-1,3-thiazol-2-yl]ethyl}cyclohexane carboxylic acid] as the compound, how does the IC50 read?
A: 266 pM

Q: For `Cc1cc(Nc2cccnn2)nc(-c2cnc(C3(O)CCCc4cc(C(=O)O)ccc43)s2)c1` (single isomer, unassigned) [Example 2.8, (R or S)-5-hydroxy-5-{5-[4-methyl-6-(pyridazin-3-ylamino)pyridin-2-yl]-1,3-thiazol-2-yl}-5,6,7,8-tetrahydronaphthalene-2-carboxylic acid], which IC50 is on record?
A: 46500 pM

Q: With `Cc1cc(Nc2nccc(C(F)(F)F)n2)cc(-c2cnc(C3(O)CCCc4cc(C(=O)O)ccc43)s2)n1` (single isomer, unassigned) [Example 4.25, (R or S)-5-hydroxy-5-[5-(6-methyl-4-{[4-(trifluoromethyl)pyrimidin-2-yl]amino}pyridin-2-yl)-1,3-thiazol-2-yl]-5,6,7,8-tetrahydronaphthalene-2-carboxylic acid] as the compound, how does the IC50 read?
A: 397 pM

Q: Which IC50 does the source give for `Cc1cc(Nc2cc(C(F)(F)F)ncn2)nc(-c2cnc([C@@]3(O)CC[C@H](C(=O)O)[C@H](C)C3)s2)c1` (single isomer, unassigned) [Example 1.3, rel-(1S,2R,4R or S)-4-hydroxy-2-methyl-4-[5-(4-methyl-6-{[6-(trifluoromethyl)pyrimidin-4-yl]amino}pyridin-2-yl)-1,3-thiazol-2-yl] cyclohexane-carboxylic acid] here?
A: 938 pM

Q: With `Cc1cc(Nc2cc(C(F)(F)F)ccn2)nc(-c2cnc(C3(O)CCC(C(=O)O)C(C)(C)C3)s2)n1` (single isomer, unassigned) [Example 1.12, (1S,4R or 1R,4S)-4-hydroxy-2,2-dimethyl-4-[5-(4-methyl-6-{[4-(trifluoromethyl)pyridin-2-yl]amino}pyrimidin-2-yl)-1,3-thiazol-2-yl]cyclohexane-carboxylic acid] as the compound, how does the IC50 read?
A: 698 pM

Q: With `Cc1cc(Nc2cc(C(F)(F)F)ncn2)nc(-c2cnc([C@@]3(O)CC[C@H](C(=O)O)[C@H](C)C3)s2)c1` (single isomer, unassigned) [Example 1.4, rel-(1S,2R,4R or S)-4-hydroxy-2-methyl-4-[5-(4-methyl-6-{[6-(trifluoromethyl)pyrimidin-4-yl]amino}pyridin-2-yl)-1,3-thiazol-2-yl]cyclohexane-carboxylic acid] as the compound, how does the IC50 read?
A: 475 pM

Q: With `CCCCOC(=O)[C@H]1CC[C@H](C(C)(O)c2ncc(-c3cc(Nc4nccc(C(F)(F)F)n4)cc(C)n3)s2)CC1` (single isomer, unassigned) [Example 4.6, butyl (trans)-4-((R or S)-1-hydroxy-[5-(6-methyl-4-{[4-(trifluoromethyl)pyrimidin-2-yl]amino}pyridin-2-yl)-1,3-thiazol-2-yl]ethyl}cyclohexane carboxylate] as the compound, how does the IC50 read?
A: 375000 pM

Q: For `Cc1cc(Nc2nccc(C(F)(F)F)n2)cc(-c2cnc(C(C)(O)c3ccc(C(=O)O)cc3)s2)n1` (single isomer, unassigned) [Example 1.20, (R or S)-4-(1-hydroxy-1-(5-(6-methyl-4-((4-(trifluoromethyl)pyrimidin-2-yl)amino)pyridin-2-yl)thiazol-2-yl)ethl)benzoic acid], which IC50 is on record?
A: 289 pM

Q: For `Cc1cc(Nc2nccc(C)n2)cc(-c2cnc(C3(O)CCC(C(=O)O)C(C)(C)C3)s2)n1` (single isomer, unassigned) [Example 4.16, (1S,4R or 1R,4S)-4-hydroxy-2,2-dimethyl-4-(5-{6-methyl-4-[(4-methylpyrimidin-2-yl)amino]pyridin-2-yl}-1,3-thiazol-2-yl)cyclohexane-carboxylic acid], which IC50 is on record?
A: 6910 pM

Q: With `Cc1cc(Nc2cc(C(F)(F)F)ncn2)nc(-c2cnc(C3(O)CCC(C(N)=O)C(C)C3)s2)c1` (single isomer, unassigned) [Example 1.17, rel-(1S,2R,4R or S)-4-hydroxy-2-methyl-4-[5-(4-methyl-6-{[6-(trifluoromethyl)pyrimidin-4-yl]amino}pyridin-2-yl)-1,3-thiazol-2-yl] cyclohexane-carboxamide] as the compound, how does the IC50 read?
A: 1260 pM

Q: For `COC(=O)C1CCC(O)(c2ncc(-c3cc(Nc4nccc(C(F)(F)F)n4)cc(C)n3)s2)CC1(C)C` (centres unmarked) [Example 1.8, methyl 4-hydroxy-2,2-dimethyl-4-[5-(6-methyl-4-{[4-(trifluoromethyl)pyrimidin-2-yl]amino}pyridin-2-yl)-1,3-thiazol-2-yl] cyclohexane-carboxylate], which IC50 is on record?
A: 8370 pM

Q: For `Cc1cc(Nc2cc(C(F)(F)F)ncn2)nc(-c2cnc(C3(O)CCCc4cc(C(=O)O)ccc43)s2)c1` (single isomer, unassigned) [Example 2.7, (R or S)-5-hydroxy-5-[5-(4-methyl-6-{[6-(trifluoromethyl)pyrimidin-4-yl]amino}pyridin-2-yl)-1,3-thiazol-2-yl]-5,6,7,8-tetrahydronaphthalene-2-carboxylic acid], which IC50 is on record?
A: 516 pM

Q: Which IC50 does the source give for `Cc1cc(Nc2cc(C(F)(F)F)ncn2)nc(-c2cnc([C@@]3(O)CC[C@H](C(N)=O)[C@H](C)C3)s2)c1` (relative stereo) [Example 1.19, rel-(1S,2R,4R or S)-4-hydroxy-2-methyl-4-[5-(4-methyl-6-{[6-(trifluoromethyl)pyrimidin-4-yl]amino}pyridin-2-yl)-1,3-thiazol-2-yl]cyclohexane-carboxamide] here?
A: 420 pM

Q: Which IC50 does the source give for `Cc1cc(Nc2cc(C(F)(F)F)ccn2)nc(-c2cnc(C3(O)CCC3)s2)n1` [Example 4.5, 1-[5-(4-methyl-6-{[4-(trifluoromethyl)pyridin-2-yl]amino}pyrimidin-2-yl)-1,3-thiazol-2-yl]cyclobutanol] here?
A: 4390 pM

System: not given
Experiment: not given
Conditions: phase II clinical trial, allergic rhinitis; cited from earlier work

Q: Which efficacy versus placebo does the source give for `Oc1cccc(Nc2ncc(F)c(Nc3cccc(O)c3)n2)c1` [Example R112] here?
A: lack of efficacy versus placebo

System: PGD2
Experiment: not given
Conditions: dosed intranasally, phase I/II study, allergic rhinitis; cited from earlier work

Q: For `Oc1cccc(Nc2ncc(F)c(Nc3cccc(O)c3)n2)c1` [Example R112], which “change in PGD2” value is on record?
A: statistically significant decrease in PGD2

Q: And the clinical safety?
A: safe across a range of indicators
